According to patent publication US4732970A, “Antitumor amino acid and peptide derivatives of 1,4-bis(aminoalkyl and hydroxy-aminoalkyl)amino)-5,8-dihydroxyanthraquinones” (priority 1986, dated 1988):
Like-named read-outs stand apart in the source and are kept apart here. *1 amine or outer side, *2 acyl side, *3 side chain or, on linkers, in order; H or OH if unused. Where a SMILES comes first, the peptide text is derived from it. Bridges are numbered along the chain shown (N, C = ends). Roman numbers before positions name the chains, in order. X1 = O=C1c2c(O)ccc(O)c2C(=O)c2c(NCCN[*:2])ccc(NCCN[*:1])c21

Tested on: lymphocytic leukemia P388
Experiment: Lymphocytic Leukemia P388 Test
Assay type: in vivo, BDF1 mice
Settings: for response vs control in vivo at 0.75 mg/kg / response vs control in vivo at 1.5 mg/kg / response vs control in vivo at 3 mg/kg: Mus musculus, P388, ip; for Median Survival: BDF1 mice
Protocol: The animals used were BDF1 mice, all of one sex, weighing a minimum of 18 g and all within a 3 g weight range. There were 5 or 6 mice per test group. The tumor transplant was by intraperitoneal injection of 0.5 ml of dilute ascitic fluid containing 10^6 cells of lymphocytic leukemia P388. The test compounds were administered intraperitoneally on days 1, 5 and 9 (relative to tumor inocu-lation) at various doses. The animals were weighed and survivors recorded on a regular basis for 60 days. The median survival time and the ratio of survival time for treated (T)/control (C) animals were calculated.

[1] = dose 0.75 mg/kg intraperitoneally on days 1, 5 and 9
[2] = dose 1.5 mg/kg intraperitoneally on days 1, 5 and 9
[3] = dose 3 mg/kg intraperitoneally on days 1, 5 and 9
[4] = dose 0.75 mg/kg intraperitoneally on days 1, 5 and 9, ratio of survival time treated/control
[5] = dose 1.5 mg/kg intraperitoneally on days 1, 5 and 9, ratio of survival time treated/control
[6] = dose 3 mg/kg intraperitoneally on days 1, 5 and 9, ratio of survival time treated/control

Compound | response vs control in vivo at 0.75 mg/kg (dose 0.75 mg/kg intraperitoneally on days 1, 5 and 9, ratio of survival time treated/control, read-out: T/C × 100 (%)) [%] | response vs control in vivo at 1.5 mg/kg (dose 1.5 mg/kg intraperitoneally on days 1, 5 and 9, ratio of survival time treated/control, read-out: T/C × 100 (%)) [%] | response vs control in vivo at 3 mg/kg (dose 3 mg/kg intraperitoneally on days 1, 5 and 9, ratio of survival time treated/control, read-out: T/C × 100 (%)) [%] | Median Survival [1] [days] | Median Survival [2] [days] | Median Survival [3] [days] | response vs control in vivo at 0.75 mg/kg (read-out: T/C × 100 (%), dose 0.75 mg/kg intraperitoneally on days 1, 5 and 9, ratio of survival time treated/control) [%] | response vs control in vivo at 1.5 mg/kg (read-out: T/C × 100 (%), dose 1.5 mg/kg intraperitoneally on days 1, 5 and 9, ratio of survival time treated/control) [%] | response vs control in vivo at 3 mg/kg (read-out: T/C × 100 (%), dose 3 mg/kg intraperitoneally on days 1, 5 and 9, ratio of survival time treated/control) [%] | T/C × 100 (%) [4] [%] | T/C × 100 (%) [5] [%] | T/C × 100 (%) [6] [%] | response vs control in vivo at 0.75 mg/kg (read-out: T/C × 100 (%)) [%] | response vs control in vivo at 1.5 mg/kg (read-out: T/C × 100 (%)) [%] | response vs control in vivo at 3 mg/kg (read-out: T/C × 100 (%)) [%]
CC(C)CC(N)C(=O)N(CCO)CCNc1ccc(NCCN(CCO)C(=O)C(N)CC(C)C)c2c1C(=O)c1c(O)ccc(O)c1C2=O.Cl.Cl (stereo not drawn) [Example 28, N,N'-[(9,10-Dihydro-5,8-dihydroxy-9,10-dioxo-1,4-anthracenediyl)bis(imino-2,1-ethanediyl)]bis[2-amino-N-(2-hydroxyethyl)-4-methylpentanamide], dihydrochloride] | 109 | 127 | 155 | 12.0 | 14.0 | 17.0 | – | – | – | – | – | – | – | – | –
Br.Br.CC(C)C[C@H](N)C(=O)N[C@@H](C)C(=O)NCCNc1ccc(NCCNC(=O)[C@H](C)NC(=O)[C@@H](N)CC(C)C)c2c1C(=O)c1c(O)ccc(O)c1C2=O [Example 50, N,N'-[(9,10-Dihydro-5,8-dihydroxy-9,10-dioxo-1,4-anthracenediyl)bis(imino-2,1-ethanediyl)]bis[L-leucyl-L-alaninamide], dihydrobromide] | – | – | – | 17.0 | 20.0 | 20.0 | 170 | 200 | 200 | – | – | – | – | – | –
CC(C)C[C@H](NC(=O)OCc1ccccc1)C(=O)N[C@@H](C)C(=O)N[C@@H](CC(C)C)C(=O)NCCNc1ccc(NCCNC(=O)[C@H](CC(C)C)NC(=O)[C@H](C)NC(=O)[C@H](CC(C)C)NC(=O)OCc2ccccc2)c2c1C(=O)c1c(O)ccc(O)c1C2=O [Example 51] | – | – | – | 20.0 | 19.0 | 17.0 | – | – | – | 182 | 173 | 155 | – | – | –
Br.Br.CC(C)C[C@H](NC(=O)[C@H](C)NC(=O)[C@@H](N)CC(C)C)C(=O)NCCNc1ccc(NCCNC(=O)[C@H](CC(C)C)NC(=O)[C@H](C)NC(=O)[C@@H](N)CC(C)C)c2c1C(=O)c1c(O)ccc(O)c1C2=O [Example 52, N,N'-[(9,10-Dihydro-5,8-dihydroxy-9,10-dioxo-1,4-anthracenediyl)bis(imino-2,1-ethanediyl)]bis[L-leucyl-L-Alanyl-L-leucinamide]dihydrobromide] | – | – | – | 20.5 | 25.5 | 25.0 | – | – | – | 205 | 255 | 250 | – | – | –
O=C(CNC(=O)OCc1ccccc1)N[C@@H](Cc1ccccc1)C(=O)NCCNc1ccc(NCCNC(=O)[C@H](Cc2ccccc2)NC(=O)CNC(=O)OCc2ccccc2)c2c1C(=O)c1c(O)ccc(O)c1C2=O [Example 53] | – | – | – | 18.5 | 17.5 | 19.0 | – | – | – | 168 | 159 | 173 | – | – | –
C[C@H](NC(=O)OCc1ccccc1)C(=O)NCC(=O)NCCNc1ccc(NCCNC(=O)CNC(=O)[C@H](C)NC(=O)OCc2ccccc2)c2c1C(=O)c1c(O)ccc(O)c1C2=O [Example 55] | – | – | – | 12.5 | 13.0 | 19.0 | – | – | – | 114 | 118 | 173 | – | – | –
Br.Br.C[C@H](N)C(=O)NCC(=O)NCCNc1ccc(NCCNC(=O)CNC(=O)[C@H](C)N)c2c1C(=O)c1c(O)ccc(O)c1C2=O [Example 56, N,N'-[(9,10-Dihydro-5,8-dihydroxy-9,10-dioxo-1,4-anthracenediyl)bis(imino-2,1-ethanediyl)]bis[L-alanyl-glycinamine]dihydrobromide] | – | – | – | 21.0 | 28.0 | 32.5 | – | – | – | 191 | 255 | 295 | – | – | –
O=C(CNC(=O)CNC(=O)OCc1ccccc1)NCCNc1ccc(NCCNC(=O)CNC(=O)CNC(=O)OCc2ccccc2)c2c1C(=O)c1c(O)ccc(O)c1C2=O [Example 57, N,N'-[(9,10-Dihydro-5,8-dihydroxy-9,10-dioxo-1,4-anthracenediyl)bis(imino-2,1-ethanediyl)]bis[N-[(phenylmethoxy)carbonyl]glycyl]glycinamide] | – | – | – | 12.0 | 14.0 | 15.0 | – | – | – | 109 | 127 | 136 | – | – | –
Br.Br.NCC(=O)NCC(=O)NCCNc1ccc(NCCNC(=O)CNC(=O)CN)c2c1C(=O)c1c(O)ccc(O)c1C2=O [Example 58, N,N'-[(9,10-Dihydro-5,8-dihydroxy-9,10-dioxo-1,4-anthracenediyl)bis(imino-2,1-ethanediyl)]bis[glycyl-glycinamide]dihydrobromide] | – | – | – | 22.0 | 21.5 | 24.0 | – | – | – | 200 | 195 | 218 | – | – | –
CC(C)(C)OC(=O)NCC(=O)NCC(=O)NCC(=O)NCCNc1ccc(NCCNC(=O)CNC(=O)CNC(=O)CNC(=O)OC(C)(C)C)c2c1C(=O)c1c(O)ccc(O)c1C2=O [Example 59, N,N'-[(9,10-Dihydro-5,8-dihydroxy-9,10-dioxo-1,4-anthracenediyl)bis(imino-2,1-ethanediyl)]bis[N-[(1,1-dimethylethoxy)carbonyl]glycylglycyl]glycinamide] | – | – | – | 15.0 | 15.5 | 18.0 | – | – | – | 136 | 141 | 164 | – | – | –
NCC(=O)NCC(=O)NCC(=O)NCCNc1ccc(NCCNC(=O)CNC(=O)CNC(=O)CN)c2c1C(=O)c1c(O)ccc(O)c1C2=O.O=C(O)C(F)(F)F.O=C(O)C(F)(F)F [Example 60, N,N'-[(9,10-Dihydro-5,8-dihydroxy-9,10-dioxo-1,4-anthracenediyl)bis(imino-2,1-ethanediyl)]bis[glycylglycylglycinamide]bis(trifluoroacetate)] | – | – | – | 19.5 | 23.0 | 22.0 | – | – | – | 177 | 209 | 200 | – | – | –
Br.Br.CC(C)C[C@H](NC(=O)[C@@H]1CCCN1C(=O)CN)C(=O)NCC(=O)N1CCC[C@H]1C(=O)NCCNc1ccc(NCCNC(=O)[C@@H]2CCCN2C(=O)CNC(=O)[C@H](CC(C)C)NC(=O)[C@@H]2CCCN2C(=O)CN)c2c1C(=O)c1c(O)ccc(O)c1C2=O [Example 62, N,N'-[(9,10-Dihydro-5,8-dihydroxy-9,10-dioxo-1,4-anthracenediyl)bis(imino-2,1-ethanediyl)]bis[glycyl-L-prolyl-L-leucylglycyl-L-prolinamide]dihydrobromide] | – | – | – | 19.0 | 22.0 | 24.5 | – | – | – | 190 | 220 | 245 | – | – | –
Br.Br.C[C@H](NC(=O)[C@@H]1CCCN1C(=O)CNC(=O)CNC(=O)[C@@H]1CCCN1C(=O)CN)C(=O)NCCNc1ccc(NCCNC(=O)[C@H](C)NC(=O)[C@@H]2CCCN2C(=O)CNC(=O)CNC(=O)[C@@H]2CCCN2C(=O)CN)c2c1C(=O)c1c(O)ccc(O)c1C2=O [Example 64, N,N'-[(9,10-Dihydro-5,8-dihydroxy-9,10-dioxo-1,4-anthracenediyl)bis(imino-2,1-ethanediyl)]bis[glycyl-L-prolylglycylglycyl-L-prolyl-L-alaninamide]-dihydrobromide] (I: H-GPGGPA / II: H-GPGGPA; linker I:C-II:C via X1) | – | – | – | 19.5 | 20.5 | 25.5 | – | – | – | – | – | – | 195 | 205 | 255
CC(C)C[C@H](NC(=O)[C@H](C)NC(=O)OC(C)(C)C)C(=O)NCCNc1ccc(NCCNC(=O)[C@H](CC(C)C)NC(=O)[C@H](C)NC(=O)OC(C)(C)C)c2c1C(=O)c1c(O)ccc(O)c1C2=O [Example 65] | – | – | – | 12.0 | 12.0 | 13.5 | – | – | – | 109 | 109 | 123 | – | – | –
CC(C)C[C@H](NC(=O)[C@H](C)N)C(=O)NCCNc1ccc(NCCNC(=O)[C@H](CC(C)C)NC(=O)[C@H](C)N)c2c1C(=O)c1c(O)ccc(O)c1C2=O.O=C(O)C(F)(F)F.O=C(O)C(F)(F)F [Example 66, N,N'-[(9,10-Dihydro-5,8-dihydroxy-9,10-dioxo-1,4-anthracenediyl)bis(imino-2,1-ethanediyl)]bis[L-alanyl-L-leucinamide]bis(trifluoroacetate)] | – | – | – | 19.0 | 20.0 | 28.0 | – | – | – | 173 | 182 | 255 | – | – | –
